The results in this text go back to patent US10874610B2, “Extracellular vesicle-based diagnostics and engineered exosomes for targeted therapeutics against cancer” (Northwestern University, priority 2016, dated 2020).

The subject of this assay is BCSCs. As to the kind of experiment: Cellular internalization pathway of bioengineered exosomes using endocytic pathway inhibitors. The assay is classed as cell-based. The settings on record: BCSCs pretreated with inhibitor, then PKH67 labeled exosomes; microscopy and flow cytometry. On the procedure: The mode of cellular internalization of the bioengineered exosomes was examined by using different endocytic pathway inhibitors. BCSCs were pretreated with different inhibitors including sucrose (inhibitor of clathrin-mediated endocytosis), amiloride (inhibitor of macropinocytosis), and filipin (inhibitor of caveolar uptake pathway), followed by the incubation with PKH67 labeled exosomes.
A general note: Flow cytometry measures light scatter and fluorescence of single cells or particles in a stream.

Consider `N=C(N)NC(=O)c1nc(Cl)c(N)nc1N` [amiloride], for which the “effect of inhibitor on cellular internalization of exosomes” value is reported as “inhibited”. The result for `OC[C@H]1O[C@@](CO)(O[C@H]2O[C@H](CO)[C@@H](O)[C@H](O)[C@H]2O)[C@@H](O)[C@@H]1O` [sucrose] reads “inhibited”.
